Results as given in ChEMBL document CHEMBL1201862, “PubChem BioAssay data set” (2004).
The source made the active and inactive calls.

Assays:
[1] = target: T1, Heat shock factor protein 1 (Mus musculus, UniProt P38532); assay: enhancement of HSF1-driven luciferase signal – cell-based, NIH3T3, luminescence, dose retest, confirmation (AID 435004); type: functional;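 note: stress induced by proteasome inhibitor MG132 added 30 min after compound; luciferase reporter driven by HSF1 response element in NIH3T3 cells; actives raise luminescence as potentiators of the MG132 stress response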
T1 sequence (P38532 whole entry): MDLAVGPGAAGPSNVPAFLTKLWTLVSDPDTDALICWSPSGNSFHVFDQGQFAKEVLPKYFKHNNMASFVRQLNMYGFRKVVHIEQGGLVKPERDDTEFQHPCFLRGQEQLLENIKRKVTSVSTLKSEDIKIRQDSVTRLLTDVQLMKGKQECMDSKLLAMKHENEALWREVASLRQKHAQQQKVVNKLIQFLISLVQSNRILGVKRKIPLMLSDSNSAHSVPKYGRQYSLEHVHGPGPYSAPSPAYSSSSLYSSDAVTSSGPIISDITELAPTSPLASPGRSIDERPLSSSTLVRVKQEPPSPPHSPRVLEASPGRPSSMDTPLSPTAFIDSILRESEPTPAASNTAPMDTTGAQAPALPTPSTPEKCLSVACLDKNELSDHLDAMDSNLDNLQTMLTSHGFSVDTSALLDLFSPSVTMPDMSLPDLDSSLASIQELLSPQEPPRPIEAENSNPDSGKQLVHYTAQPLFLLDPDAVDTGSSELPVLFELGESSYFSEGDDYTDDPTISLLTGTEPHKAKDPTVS

cells = type: functional
[2] = target: FAD-linked sulfhydryl oxidase ALR (Homo sapiens, UniProt P55789); assay: ALR-catalysed DTT oxidation blockers – biochemical, H2O2 detection, luminescence, cherry-pick, dose response (AID 493248)
Sequence of FAD-linked sulfhydryl oxidase ALR (P55789 whole entry): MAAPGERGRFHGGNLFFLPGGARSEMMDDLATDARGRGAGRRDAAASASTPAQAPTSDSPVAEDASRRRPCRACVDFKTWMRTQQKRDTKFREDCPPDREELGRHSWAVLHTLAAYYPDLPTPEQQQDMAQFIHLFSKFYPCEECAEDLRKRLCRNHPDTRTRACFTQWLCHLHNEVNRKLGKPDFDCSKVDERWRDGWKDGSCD

Cytochrome P450 1A2 = target: T2, Cytochrome P450 1A2 (Homo sapiens, UniProt P05177);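 note: PubChem cytochrome P450 panel assay, CYP1A2 panel member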
T2 sequence (P05177 whole entry): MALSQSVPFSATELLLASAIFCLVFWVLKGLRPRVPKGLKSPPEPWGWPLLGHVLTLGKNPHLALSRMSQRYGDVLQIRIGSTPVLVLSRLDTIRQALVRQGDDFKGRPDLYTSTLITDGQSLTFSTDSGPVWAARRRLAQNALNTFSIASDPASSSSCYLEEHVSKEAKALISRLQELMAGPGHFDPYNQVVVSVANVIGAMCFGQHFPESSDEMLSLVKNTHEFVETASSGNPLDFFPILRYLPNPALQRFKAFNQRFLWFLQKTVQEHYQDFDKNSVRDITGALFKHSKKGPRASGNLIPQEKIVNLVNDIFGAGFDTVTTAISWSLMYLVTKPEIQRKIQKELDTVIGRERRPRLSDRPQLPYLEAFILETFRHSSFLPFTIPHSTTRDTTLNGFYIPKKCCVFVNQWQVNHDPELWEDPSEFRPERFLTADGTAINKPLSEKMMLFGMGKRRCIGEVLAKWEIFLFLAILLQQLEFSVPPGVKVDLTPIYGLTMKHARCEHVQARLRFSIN

Cytochrome P450 2D6 = Cytochrome P450 2D6 (Homo sapiens, UniProt P10635);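 note: CYP2D6 member of a cytochrome P450 panel assay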
Sequence of Cytochrome P450 2D6 (P10635 whole entry): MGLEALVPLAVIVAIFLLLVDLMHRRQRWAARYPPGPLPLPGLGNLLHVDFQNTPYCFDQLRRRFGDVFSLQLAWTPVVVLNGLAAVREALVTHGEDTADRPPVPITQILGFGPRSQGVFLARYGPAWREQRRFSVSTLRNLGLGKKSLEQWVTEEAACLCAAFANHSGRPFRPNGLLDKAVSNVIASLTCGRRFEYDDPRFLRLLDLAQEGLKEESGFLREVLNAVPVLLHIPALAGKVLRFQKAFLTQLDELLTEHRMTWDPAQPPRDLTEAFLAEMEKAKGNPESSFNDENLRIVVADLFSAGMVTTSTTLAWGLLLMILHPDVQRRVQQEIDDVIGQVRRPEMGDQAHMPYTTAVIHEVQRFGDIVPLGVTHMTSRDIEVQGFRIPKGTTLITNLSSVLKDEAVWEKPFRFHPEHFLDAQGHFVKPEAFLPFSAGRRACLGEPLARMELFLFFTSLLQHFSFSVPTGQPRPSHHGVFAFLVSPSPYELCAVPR

[3] = Luminescence Cell-Based Dose Retest to Confirm Inhibitors of Cancer Stem Cells. [Related pubchem assays (depositor defined):AID2717, AID2721]; type: functional; details: Homo sapiens
[4] = alpha-synuclein stem-loop luciferase translation blockers – H4 neuroglioma cells, luminescence, confirmation (AID 1988); type: functional, cell-based
[5] = Luminescence Cell-Based Dose Response HTS to Identify Inhibitors of 5'UTR Stem-Loop Driven Prion Protein mRNA Translation in H4 Neuroglioblastoma Cells. [Related pubchem assays: 1827 (Project Summary), 1813 (Primary HTS)]; type: functional
[6] = luciferase reporter signal suppression in cells – H4 neuroglioma cells, luminescence, dose response (AID 1990); type: functional, cell-based
Cytochrome P450 2C19 = Cytochrome P450 2C19 (Homo sapiens, UniProt P33261); assay: Cytochrome panel assay with activity outcomes. Panel member name: p450-cyp2c19 Compounds with AC50 equal or less than 10 uM are considered active; type: functional; details: read-out: AC50
Sequence of Cytochrome P450 2C19 (P33261 whole entry): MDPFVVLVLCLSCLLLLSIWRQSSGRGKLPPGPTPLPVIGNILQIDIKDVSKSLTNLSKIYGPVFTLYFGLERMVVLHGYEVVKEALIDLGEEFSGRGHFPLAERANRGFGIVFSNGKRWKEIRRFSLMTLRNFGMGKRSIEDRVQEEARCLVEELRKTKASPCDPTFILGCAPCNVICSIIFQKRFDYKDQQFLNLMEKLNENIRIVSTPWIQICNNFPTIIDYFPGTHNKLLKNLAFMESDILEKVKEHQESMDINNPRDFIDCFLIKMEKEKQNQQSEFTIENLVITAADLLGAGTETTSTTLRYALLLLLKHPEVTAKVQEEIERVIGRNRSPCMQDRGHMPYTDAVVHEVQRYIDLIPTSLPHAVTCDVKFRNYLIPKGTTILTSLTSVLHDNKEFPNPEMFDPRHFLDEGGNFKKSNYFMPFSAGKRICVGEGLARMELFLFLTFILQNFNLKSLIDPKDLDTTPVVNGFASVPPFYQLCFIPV

For `COc1cccc(/C=C2\N=C(SC)SC2=O)c1OC`, the EC50 [1] was 241 µM (active).
For `Cc1csc(NC(=O)c2cc([N+](=O)[O-])cc([N+](=O)[O-])c2)n1`, the IC50 (cells) was 13.2 µM (active).
For `Cc1ccc(Nc2c(-c3ccccc3O)nc3cnccn23)cc1`, the AC50 [2] was 0.705 µM (active).
For `O=[N+]([O-])c1cc(O)c(O)c([N+](=O)[O-])c1` [3,5-DINITROCATECHOL (OR-486)], the AC50 (Cytochrome P450 1A2) was 39.8 µM (inconclusive).
In the case of `COc1ccc(/C=N/Nc2ccccn2)c(OC)c1OC`, the AC50 [2] is reported as 0.484 µM (active).
For `N#Cc1ccsc1NC(=O)CN1CCN(c2ccccc2O)CC1`, the AC50 [2] was 1.46 µM (active).
For `CCOC(=O)Nc1ccc(C(=O)NCC2CCCO2)cc1` (stereo not given), the AC50 (Cytochrome P450 1A2) was 39.8 µM (inconclusive).
With `NC1=NC(=O)/C(=C/c2cn(Cc3ccccc3)c3ccccc23)S1` the EC50 [1] was > 260 µM (inactive).
For `CC1C/C(=N/NC(=O)c2cccc(F)c2)c2ccc(O)cc2C1` (stereo not given), the IC50 (cells) was 34.6 µM (active).
In the case of `C/C(=N\NC(=O)c1cccc(N2CCCC2=O)c1)c1ccc(N)cc1`, the AC50 [2] is reported as 1.61 µM (active).
With `COc1ccc(CCN2/C(=N/C(=O)CCC(=O)O)SC3CS(=O)(=O)CC32)cc1` (stereo not given) the AC50 (Cytochrome P450 2D6) was 39.8 µM (inconclusive).
For `O=C(c1cc2ccccc2o1)N1CCN=C1SCc1cccnc1`, the AC50 [2] was 0.095 µM (active).
In the case of `CCOC(=O)c1c(NC(NC(=O)C(C)C)C(Cl)(Cl)Cl)sc2c1CCC2` (stereo not given), the AC50 [3] is reported as 3.39 µM (active).
With `COc1cccc(N(C(=O)Cn2nnc(-c3cccs3)n2)C(C(=O)NC(C)C)c2ccc(C)o2)c1` (stereo not given) the EC50 [4] was 18.8 µM (active), the EC50 [5] was > 120 µM (not active) and the EC50 [6] was 16.4 µM (active).
In the case of `CCOC(=O)Cn1cc(C#N)c2cccc(CC)c21`, the IC50 (cells) is reported as 4.78 µM (active).
For `CC1CCCCN1c1ccc(N)cc1C(N)=O` (stereo not given), the AC50 [2] was 11.1 µM (active).
With `O=C(CC1S/C(=N\CCc2ccccc2)N(/N=C/c2cccs2)C1=O)Nc1ccc(Cl)cc1` (stereo not given) the EC50 [1] was > 260 µM (inactive).
In the case of `COc1ccc(C(=O)Nc2cccc(/C=C/c3nc(O)c4ccccc4n3)c2)cc1`, the AC50 [3] is reported as 3.7 µM (active).
In the case of `O=C(OCc1ccc([N+](=O)[O-])cc1)c1cc2ccccc2oc1=O`, the IC50 (cells) is reported as 23.2 µM (active).
For `Cc1ccc(NNC(=O)c2ccno2)c(C)c1`, the EC50 [1] was > 260 µM (inactive) and the AC50 [2] was 3.48 µM (active).
In the case of `Cc1ccccc1CSc1nnc(-c2cccs2)n1Cc1ccco1`, the AC50 (Cytochrome P450 2D6) is reported as 1.12 µM (inconclusive).
In the case of `CCOC(=O)c1ccc(Nc2nc(-c3cccnc3)nc3ccccc23)cc1`, the AC50 (Cytochrome P450 2D6) is reported as 10 µM (inconclusive).
For `Cc1ccc(Sc2ccc(S(=O)(=O)Nc3ccc(C(=O)O)cc3)cc2)cc1C`, the AC50 [2] was 20.7 µM (active).
For `O=C(Nc1ccc(Nc2ccccc2)cc1)c1ccccc1`, the AC50 [3] was 13.7 µM (active).
With `CC(=O)N1CCN=C1SCc1cccc(C(F)(F)F)c1` the AC50 [2] was 7.34 µM (active).
In the case of `CCOC(=O)CCNC(=O)c1ccc2nc(C3CCCCC3)oc2c1`, the IC50 (cells) is reported as 23.8 µM (active).
With `Cc1c(C(=O)N2CCOCC2)c(S(=O)(=O)Nc2cccc(Br)c2)c(C)n1C` the EC50 [4] was 15 µM (active), the EC50 [5] was 32.2 µM (active) and the EC50 [6] was > 120 µM (not active).
For `O=C(c1csnn1)N1CCC2(CC1)CN(c1ccccc1)C2`, the AC50 (Cytochrome P450 2C19) was 39.8 µM (inconclusive) and the AC50 (Cytochrome P450 2D6) was 15.8 µM (inconclusive).
In the case of `Cc1ccccc1-c1nc(N2CCNCC2)c2ccccc2n1`, the AC50 (Cytochrome P450 2D6) is reported as 20 µM (inconclusive).
